According to patent EP0099121A2, “Pharmaceutical compositions” (Bristol-Myers Company, priority 1982, dated 1984):

Tested on: Gastric Acid Output
Assay: Gastric antisecretory activity in the Gastric Fistula Rat (Table 2 title: Two-Hour Pylorus Ligated Rat)
Format: in vivo, Long Evans rats
Settings: Rattus norvegicus, ip; Route of Administration i.p.; numbers in parentheses are the 95% confidence limits; read-out: ED50
Description: Male Long Evans rats weighing about 240-260 grams at the time of cannula implantation are used. The design and implantation of the stainless steel cannula into the anterior wall of the fore-stomach are carried out essentially as described by Pare et al. [Laboratory Animal Science, 27, 244 (1977)]. The fistula components are designed and the operative procedure is carried out exactly as described in the above reference. Post operatively the animals are individually housed in solid bottom cages with sawdust and are allowed food and water ad libitum throughout the entire recovery period. Animals are not used for test purposes for at least 15 days after the operative procedure.
The animals are fasted but allowed water ad libitum for 20 hours before the testing procedure is to begin. Immediately prior to collection, the cannula is opened and the stomach washed gently with 30-40 mL of warm saline or distilled water to remove any residual contents. The catheter is then screwed into the cannula in place of the plugging screw and the rat is placed in a clear plastic rectangular cage measuring 40 cm long, 15 cm wide and 13 cm high. The bottom of the cage has a slit approximately 1.5 cm wide and 25 cm long running down the center to accommodate the catheter which hangs through it. In this way the rat is not restricted and can move freely about the cage during collection periods. The remainder of the assay is carried out as described by Ridley et al. [Research Comm. Chem. Path. Pharm., 17, 365 (1977)].
Gastric secretions collected during the first hour after washing the stomach are discarded as they may be contaminated. For oral evaluation, the catheter is then removed from the cannula and replaced with the plugging screw. Water (2 mL/kg) is administered orally via gastric intubation and the animal is returned to the cage for 45 minutes. After this time the plugging screw is removed and replaced with a catheter to which a small plastic vial has been attached to collect the gastric secretions. A two hour sample is collected (this represents the control secretion), the catheter removed and replaced with the plugging screw. The test drug is now administered orally in a volume of 2 mL/kg via gastric intubation. Forty-five minutes later the plugging screw is again removed, replaced with the catheter attached to a small plastic vial and another 2 hour sample is collected. The secretions in the second sample are compared to those of the control sample in order to determine the effects of the test drug.
When test compounds are to be evaluated parenterally, the animal is injected ip or sc with the test compound vehicle in a volume of 2 mL/kg immediately after discarding the initial 60 minute collection. A two hour sample is collected (control secretion) and the animals are injected either ip or sc with the test compound in a volume of 2 mL/kg. An additional two hour sample is collected and its secretions are compared to those of the control period to determing drug effects.
The samples are centrifuged in a graduated tube for volume determination. Titratable acidity is measured by titrating a one mL sample to pH 7.0 with 0.02N NaOH, using an Autoburet and an electrometric pH meter (Radiometer). Titratable acid output is calculated in microequivalents by multiplying the volume in milliliters by the acid concentration in milliequivalents per liter.
Results are expressed as percent inhibition relative to control readings. Dose response curves are constructed and ED values are calculated by regression analyses. At least three rats are used at each dosage level and a minimum of three dosage levels are utilized for determination of a dose response curve.

Molecule | ED50
C#CCNC1=NS(=O)(=O)N=C1NCCSCc1nc[nH]c1C [Example 1, 3-{2-[(5-Methyl-1H-imidazol-4-yl)methylthio}ethylamino}-4-(2-propynyl)amino-1,2,5-thiadiazole 1,1-dioxide] | 12.5 µmol/kg

Same assay, conditions: Rattus norvegicus, sc; Route of Administration s.c.; numbers in parentheses are the 95% confidence limits; read-out: ED50

Molecule | ED50
CNC1=NS(=O)(=O)N=C1NCCSCc1csc(N)n1 [Example 122, 3-{2-[(2-Aminothiazol-4-yl)methylthio]ethylamino}-4-methylamino-1,2,5-thiadiazole 1,1-dioxide] | ~10 µmol/kg
CONC1=NS(=O)(=O)N=C1NCCSCc1ccc(CN(C)C)o1 [Example 107, 3-{2-[(5-Dimethylaminomethyl-2-furyl)methylthio]ethylamino}-4-methoxyamino-1,2,5-thiadiazole 1,1-dioxide] | 23 µmol/kg
CN(C)Cc1ccc(CSCCNC2=NS(=O)(=O)N=C2NO)o1 [Example 105, 3-{2-[(5-Dimethylaminomethyl-2-furyl)methylthio]ethy1arnino}-4-hydroxylamino-1,2,5-thiadiazole 1,1-dioxide] | 1.65 µmol/kg
CNc1n[s+]([O-])nc1NCCSCc1csc(NC(=N)N)n1 (centres unmarked) [Example 115, 3-{2-[(2-Guanidinothiazol-4-yl)methylthio]ethylamino}-4-methylamino-1,2,5-thiadiazole 1-oxide] | 0.57 µmol/kg
CNc1n[s+]([O-])nc1NCCSCc1ccc(CN(C)C)s1 (centres unmarked) [Example 92, 3-{2-[(5-Dimethylaminomethyl-2-thienyl)methylthio]-ethylamino}-4-methylamino-1,2,5-thiadiazole 1-oxide] | 0.24 µmol/kg
CCCNC1=NS(=O)(=O)N=C1NCCSCc1ccc(CN(C)C)s1 [Example 108, 3-{2-[(5-Dimethylaminomethyl-2-thienyl)methylthio]ethylamino}-4-propylamino-1,2,5-thiadiazole 1,1-dioxide] | 2.2 µmol/kg
C#CCN(C)Cc1ccc(CSCCNC2=NS(=O)(=O)N=C2NC)o1 [Example 14, 3-Methylamino-4-{2-[(5-([N-methyl-N-(2-propynyl)amino]-methyl}-2-furyl)methylthio]ethylamino}-12,5-thiadiazole 1,1-dioxide] | ~25 µmol/kg
NC(N)=Nc1ncc(CSCCNc2n[s+]([O-])nc2N)s1 (centres unmarked) [Example 96, 3-Psnino-4-{2-[(2-guanidinothiazol-5-yl)methylthio]-ethylamino}-1,2,5-thiadiazole 1-oxide] | ~15 µmol/kg
CN=C(NC)Nc1nc(CSCCNc2n[s+]([O-])nc2N)cs1 (centres unmarked) [Example 120, 3-Amino-4-{2-[(2-{2,3-dimethylguanidino}thiazol-4-yl)-methylthio]ethylamino}-1,2,5-thiadiazole I-oxide] | ~5 µmol/kg
CN(C)Cc1ccc(CSCCNC2=NS(=O)(=O)N=C2NCc2ccccn2)s1 [Example 129, 3-{2-[(5-Dimethylaminomethyl-2-thienyl)methylthio]ethylamino}-4-[(2-pyridyl)methylamino]-1,2,5-thiadiazole 1,1-dioxide] | ~1 µmol/kg
CN(C)Cc1ccc(CSCCNC2=NS(=O)(=O)N=C2NCC2CC2)o1 [Example 98, 3-Cyclopropylmethylamino-4-{2-[ (5-dimethylaminomethyl-2-furyl)methylthio]ethylamino}-1,2,5-thiadiazole 1,1-dioxide] | 0.52 µmol/kg
CN(C)Cc1ccc(CCCCNC2=NS(=O)(=O)N=C2N)o1 [Example 93, 3-Amino-4-{4-(5-dimethylaminomethyl-2-furyl)butylamino}-1,2,5-thiaciazole 1,1-dioxide] | 0.14 µmol/kg
CCCCNC1=NS(=O)(=O)N=C1NCCSCc1ccc(CN(C)C)o1 [Example 103, 3-Butylamino-4-(2-[(5-dimethylaminomethyl-2-furyl)methylthio]-ethylamino}-1,2,5-thiadiazole 1,1-dioxide] | 0.54 µmol/kg
CN(C)Cc1ccc(CSCCNC2=NS(=O)(=O)N=C2NCc2ccccc2)o1 [Example 89, 3-Benzylamino-4-{2-[(5-dimethylaminomethyl-2-furyl)-methylthio]ethylamino}-1,2,5-thiadiazole 1,1-dioxide] | 0.25 µmol/kg
Nc1nc(CSCCNc2n[s+]([O-])nc2N)cs1 (centres unmarked) [Example 124, 3-Amino-4-{2-[(2-aminothiazol-4-yl)methylthio]ethylamino}-1,2,5-thiadiazole 1-oxide] | > 10 µmol/kg
CN(C)Cc1ccc(CSCCNC2=NS(=O)(=O)N=C2NCc2ccncc2)s1 [Example 130, 3-{2-[(5-Dimethylaminomethyl-2-thienyl)methylthio]ethylamino}-4-[(4-pyridyl)methylamino]-1,2,5-thiadiazole 1,1-dioxide] | 2.3 µmol/kg
CN(C)Cc1ccc(CSCCNC2=NS(=O)(=O)N=C2NCc2ccccc2)s1 [Example 112, 3-Benzylamino-4-(2-[(5-dimethylaminomethyl-2-thienyl)-methylthio]ethylamino}-1,2,5-thiadiazole 1,1-dioxide] | 1.2 µmol/kg
C=CCNC1=NS(=O)(=O)N=C1NCCSCc1ccc(CN(C)C)o1 [Example 19, 3-Allylamino-4-{2-[(5-dimethylaminomethyl-2-furyl)methyl-thio]ethylamino}-1,2,5-thiadiazole 1,1-dioxide] | 0.34 µmol/kg
CN(C)Cc1ccc(CSCCNc2n[s+]([O-])nc2N)s1 (centres unmarked) [Example 109, 3-Amino-4-{2-[(5-dimethylaminomethyl-2-thienyl)methylthio]-ethylamino}-1,2,5-thiadiazole 1-oxide] | 1.4 µmol/kg
CNC1=NS(=O)(=O)N=C1NCCSCc1ccccn1 [Example 52, 3-Methylamino-4-{2-[(2-pyridyl)methylthio]ethylamino}-1,2,5-thiadiazole 1,1-dioxide] | ~350 µmol/kg
N=C(N)Nc1nc(CSCCNC2=NS(=O)(=O)N=C2NCCO)cs1 [Example 36, 3-{2-[(2-Guanidinothiazol-4-yl)methylthio]ethylamino}-4-(2-hydroxyethylamino)-1,2,5-thiadiazole 1,1-dioxide] | 1.59 µmol/kg
CN(C)Cc1ccc(CSCCNC2=NS(=O)(=O)N=C2N2CCOCC2)o1 [Example 99, 3-{2-[(5-Dimethylaminomethyl-2-furyl)methylthio]ethylamino}-4-morpholino-1,2,5-thiadiazole 1,1-dioxide] | 32 µmol/kg
CNC1=NS(=O)(=O)N=C1NCCSCc1csc(N=C2NCCN2)n1 [Example 128, 3-{2-[(2-{2-Imidazolidinyl}iminothiazol-4-yl)methylthio]-ethylamino}-4-methy1amino-1,2,5-thiadiazole 1,1-dioxide] | ~10 µmol/kg
C#CCNC1=NS(=O)(=O)N=C1NCCSCc1ccc(CN(C)C)o1 [Example 13, 3-{2-[(5-Dimethylaminomethyl-2-furyl)methvlthio]ethyl-amino}-4-(2-proynyl)amino-1,2,5-thiadiazole 1,1-dioxide] | 0.46 µmol/kg
CN(C)Cc1ccc(CSCCNC2=NS(=O)(=O)N=C2NCc2cccnc2)s1 [Example 110, 3-{2-[(5-Dimethylaminomethyl-2-thienyl)methylthio]ethylamino}-4-[(3-pyridyl)methylamino]-1,2,5-thiadiazole 1,1-dioxide] | 0.05 µmol/kg
CNC1=NS(=O)(=O)N=C1NCCCOc1cccc(CN(C)C)c1 [Example 113, 3-[3-(3-Dimethylaminomethylphenoxy)propylamino]-4-methylamino-1,2,5-thiadiazole 1,1-dioxide] | 0.07 µmol/kg
CNC1=NS(=O)(=O)N=C1NCCSCc1cccc(CN(C)C)c1 [Example 90, 3-{2-[(3-{Dimethylaminomethyl}phenyl)methylthio]ethylamino}-4-methylamino-1,2,5-thiadiazole 1,1-dioxide] | 0.86 µmol/kg

Same assay, conditions: Route of Administration s.c.; numbers in parentheses are the 95% confidence limits

Molecule | ED50
CNC1=NS(=O)(=O)N=C1NCCCOc1cccc(CN2CCCC2)c1 [144 a] | 0.095 (0.033-0.30) μmoles/kg
CC1CCN(Cc2cccc(OCCCNc3n[s+]([O-])nc3N)c2)CC1 (centres unmarked) [145 b] | ~0.06 µmol/kg
3-{2-[(5-Dimethylaminomethyl-2-furyl)methylthio]ethyl- amino}-4-dinethylamino-1,2,5-thiadiazole 1,1-dioxide [Example 28] | 1.39 (0.39-4.91) μmoles/kg
CNCc1ccc(CSCCNC2=NS(=O)(=O)N=C2NC)o1 [20 A] | 1.15 (0.32-3.7) μmoles/kg
